Common to all, as to type: cell-based
In assay [1] the target is Protein cereblon/Cyclic GMP-AMP synthase (Homo sapiens, UniProt Q96SW2+Q8N884). The assay is described as follows: PROTAC activity at CRBN/cGAS in human THP-1 cells assessed as induction of cGAS degradation at 10 uM preincubated with compound for 40 hrs followed by HT-DNA stimulation and measured after 8 hrs by Western blot analysis relative to control. Particulars: time 48.0 hrs.

Assay [2] can be described thus: Inhibition of dsDNA-induced cGAS signaling pathway in mouse RAW-Lucia ISG cells preincubated with compound for 24 hrs followed by HT-DNA addition and measured after 24 hrs by QUANTI-Luc luciferase reagent based assay.
A short description of assay [3]: Inhibition of dsDNA-induced cGAS signaling pathway in human THP1-Lucia ISG cells preincubated with compound for 24 hrs followed by HT-DNA addition and measured after 24 hrs by QUANTI-Luc luciferase reagent based assay.

Structures are written as SMILES. A value given as a limit tells only on which side of the number the result lay.

A word on the IC50: it is the concentration that inhibits the measured activity by half.

Chain of Protein cereblon/Cyclic GMP-AMP synthase (Q8N884 whole entry, looked up): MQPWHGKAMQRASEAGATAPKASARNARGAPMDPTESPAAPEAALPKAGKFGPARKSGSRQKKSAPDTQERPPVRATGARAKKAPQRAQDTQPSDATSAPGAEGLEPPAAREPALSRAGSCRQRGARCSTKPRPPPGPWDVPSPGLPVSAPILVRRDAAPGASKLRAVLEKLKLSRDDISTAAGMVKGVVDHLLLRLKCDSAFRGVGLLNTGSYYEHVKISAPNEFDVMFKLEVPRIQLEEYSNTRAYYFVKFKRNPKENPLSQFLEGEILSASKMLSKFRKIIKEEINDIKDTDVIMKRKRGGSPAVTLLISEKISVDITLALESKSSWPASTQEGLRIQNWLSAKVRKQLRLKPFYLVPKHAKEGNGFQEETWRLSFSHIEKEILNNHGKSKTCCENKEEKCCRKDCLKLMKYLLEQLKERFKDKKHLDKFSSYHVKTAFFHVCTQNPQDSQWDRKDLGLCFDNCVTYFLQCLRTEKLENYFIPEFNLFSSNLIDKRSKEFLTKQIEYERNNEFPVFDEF
Chain of Protein cereblon/Cyclic GMP-AMP synthase (Q96SW2 whole entry, looked up): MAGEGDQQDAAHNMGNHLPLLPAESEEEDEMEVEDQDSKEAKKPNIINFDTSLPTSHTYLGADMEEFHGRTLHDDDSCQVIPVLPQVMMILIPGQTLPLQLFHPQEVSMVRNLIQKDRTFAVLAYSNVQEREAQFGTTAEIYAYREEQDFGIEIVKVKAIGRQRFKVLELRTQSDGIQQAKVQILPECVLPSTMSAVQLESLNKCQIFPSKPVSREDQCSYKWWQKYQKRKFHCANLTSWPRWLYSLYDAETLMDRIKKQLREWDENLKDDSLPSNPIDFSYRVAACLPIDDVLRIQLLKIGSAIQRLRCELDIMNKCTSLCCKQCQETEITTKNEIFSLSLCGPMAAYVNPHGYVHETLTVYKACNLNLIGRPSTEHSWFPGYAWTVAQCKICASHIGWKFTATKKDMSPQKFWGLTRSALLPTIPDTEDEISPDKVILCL

On to `O=C1CCC(N2C(=O)c3cccc(NCCOCCOCCOCC(=O)N4CCC(Cn5cc(-c6cc(Cl)c(Cl)c7[nH]c8c(c67)CN(C(=O)CO)CC8)cn5)CC4)c3C2=O)C(=O)N1` (stereo not drawn), for which the Activity in assay [1] came to 13.9%. The concentration for half-maximal inhibition (IC50) in assay [2] and in assay [3] was > 50 µM in each case.
For the compound `O=C1CCC(N2C(=O)c3cccc(NCCCCC(=O)N4CCC(Cn5cc(-c6cc(Cl)c(Cl)c7[nH]c8c(c67)CN(C(=O)CO)CC8)cn5)CC4)c3C2=O)C(=O)N1` (stereo not drawn), the Activity in assay [1] came out at 10.5%. Moreover, the 50% inhibitory concentration (IC50) in assay [2] and in assay [3] was > 50 µM each time.
Turning to `Cn1ccc(-c2cc(Cl)c(Cl)c3[nH]c4c(c23)CN(C(=O)CCCCCCC#Cc2cccc3c2CN(C2CCC(=O)NC2=O)C3=O)CC4)n1` (stereo not drawn), the Activity in assay [1] was 44.7%. The IC50 in assay [2] was > 50 µM; in assay [3], 28.8 µM.
The like results for `Cn1ccc(-c2cc(Cl)c(Cl)c3[nH]c4c(c23)CN(C(=O)CNC(=O)CCCCCCCNc2cccc3c2C(=O)N(C2CCC(=O)NC2=O)C3=O)CC4)n1` (stereo not drawn) were, in that order, 34.2%, > 50 µM and 29.6 µM.
In the case of `Cn1ccc(-c2cc(Cl)c(Cl)c3[nH]c4c(c23)CN(C(=O)CNC(=O)CCCCCC#Cc2cccc3c2C(=O)N(C2CCC(=O)NC2=O)C3=O)CC4)n1` (stereo not drawn), the Activity in assay [1] turned out to be 57.7%. The IC50 was > 50 µM in assay [2] and 21.4 µM in assay [3].
The like results for `Cn1ccc(-c2cc(Cl)c(Cl)c3[nH]c4c(c23)CN(C(=O)CNC(=O)CCCC#Cc2ccc3c(c2)CN(C2CCC(=O)NC2=O)C3=O)CC4)n1` (stereo not drawn) were, in that order, 25.6%, > 50 µM and > 50 µM.
On to `Cn1ccc(-c2cc(Cl)c(Cl)c3[nH]c4c(c23)CN(C(=O)CNC(=O)CC2CCN(C(=O)COc3cccc5c3C(=O)N(C3CCC(=O)NC3=O)C5=O)CC2)CC4)n1` (stereo not drawn), for which, in assay [1], the Activity is 6.3%. Also, the IC50 in assay [2] and in assay [3] was > 50 µM in each case.
For the compound `Cn1ccc(-c2cc(Cl)c(Cl)c3[nH]c4c(c23)CN(C(=O)CNC(=O)COCCOCCNc2cccc3c2C(=O)N(C2CCC(=O)NC2=O)C3=O)CC4)n1` (stereo not drawn), the Activity in assay [1] was 46.8%. In addition, the IC50 in assay [2] was > 50 µM; in assay [3] it was 27.4 µM.
The like results for `Cn1ccc(-c2cc(Cl)c(Cl)c3[nH]c4c(c23)CN(C(=O)CNC(=O)CCOCCOCCOCCOCCNc2cccc3c2C(=O)N(C2CCC(=O)NC2=O)C3=O)CC4)n1` (stereo not drawn) were, in that order, 20.5%, > 50 µM and > 50 µM.
The like results for `Cn1ccc(-c2cc(Cl)c(Cl)c3[nH]c4c(c23)CN(C(=O)CNC(=O)CCCCC#Cc2ccc3c(c2)CN(C2CCC(=O)NC2=O)C3=O)CC4)n1` (stereo not drawn) were, in that order, 21.9%, > 50 µM and > 50 µM.
Take `Cn1ccc(-c2cc(Cl)c(Cl)c3[nH]c4c(c23)CN(C(=O)CNC(=O)COCCOCCOCCNc2cccc3c2C(=O)N(C2CCC(=O)NC2=O)C3=O)CC4)n1` (stereo not drawn): in assay [1], the Activity was determined as 34.6%. For the same compound, the figures for the IC50 in assay [2] and in assay [3] were > 50 µM and 28.1 µM, respectively.
The like results for `O=C1CCC(N2C(=O)c3cccc(NCCCCCC(=O)N4CCC(Cn5cc(-c6cc(Cl)c(Cl)c7[nH]c8c(c67)CN(C(=O)CO)CC8)cn5)CC4)c3C2=O)C(=O)N1` (stereo not drawn) were, in that order, 57.7%, 39.8 µM and 20.5 µM.
The like results for `Cn1ccc(-c2cc(Cl)c(Cl)c3[nH]c4c(c23)CN(C(=O)CNC(=O)CCNc2cccc3c2C(=O)N(C2CCC(=O)NC2=O)C3=O)CC4)n1` (stereo not drawn) were, in that order, 42%, > 50 µM and 35.1 µM.
Consider `O=C1CCC(N2C(=O)c3cccc(NCCCCCCC(=O)N4CCC(Cn5cc(-c6cc(Cl)c(Cl)c7[nH]c8c(c67)CN(C(=O)CO)CC8)cn5)CC4)c3C2=O)C(=O)N1` (stereo not drawn), for which the Activity in assay [1] amounted to 44.7%. In addition, the figures for the IC50 in assay [2] and in assay [3] were > 50 µM and 25.8 µM, respectively.
As for `O=C1CCC(N2C(=O)c3cccc(NCCCCCCCCC(=O)N4CCC(Cn5cc(-c6cc(Cl)c(Cl)c7[nH]c8c(c67)CN(C(=O)CO)CC8)cn5)CC4)c3C2=O)C(=O)N1` (stereo not drawn), in assay [1], the Activity amounted to 23.9%. In addition, the IC50 in assay [2] and in assay [3] was > 50 µM each time.
Consider `Cn1ccc(-c2cc(Cl)c(Cl)c3[nH]c4c(c23)CN(C(=O)CNC(=O)CCCCCCNc2cccc3c2C(=O)N(C2CCC(=O)NC2=O)C3=O)CC4)n1` (stereo not drawn), for which, in assay [1], the Activity was determined as 55.1%. The results for the IC50 in assay [2] and in assay [3] were 28.3 µM and 16.3 µM, respectively.
For `Cn1ccc(-c2cc(Cl)c(Cl)c3[nH]c4c(c23)CN(C(=O)CNC(=O)COCCNc2cccc3c2C(=O)N(C2CCC(=O)NC2=O)C3=O)CC4)n1` (stereo not drawn), in assay [1], the Activity is 38.2%. Also, the IC50 in assay [2] was > 50 µM; in assay [3], 34.2 µM.
The like results for `Cn1ccc(-c2cc(Cl)c(Cl)c3[nH]c4c(c23)CN(C(=O)CNC(=O)CCN2CCN(C(=O)COc3cccc5c3C(=O)N(C3CCC(=O)NC3=O)C5=O)CC2)CC4)n1` (stereo not drawn) were, in that order, 15.1%, > 50 µM and > 50 µM.
In the case of `Cn1ccc(-c2cc(Cl)c(Cl)c3[nH]c4c(c23)CN(C(=O)CNC(=O)CCC2CCN(C(=O)COc3cccc5c3C(=O)N(C3CCC(=O)NC3=O)C5=O)CC2)CC4)n1` (stereo not drawn), in assay [1], the Activity was 18.9%. Further, the IC50 in assay [2] and in assay [3] was > 50 µM throughout.
Take `Cn1ccc(-c2cc(Cl)c(Cl)c3[nH]c4c(c23)CN(C(=O)CNC(=O)CCCNc2cccc3c2C(=O)N(C2CCC(=O)NC2=O)C3=O)CC4)n1` (stereo not drawn): the Activity in assay [1] turned out to be 58.7%. For the same compound, the IC50 worked out at 25.6 µM in assay [2] and 12.2 µM in assay [3].
The like results for `Cn1ccc(-c2cc(Cl)c(Cl)c3[nH]c4c(c23)CN(C(=O)CNC(=O)CCCCCCCCNc2cccc3c2C(=O)N(C2CCC(=O)NC2=O)C3=O)CC4)n1` (stereo not drawn) were, in that order, 30.4%, > 50 µM and 37.1 µM.
For the compound `O=C1CCC(N2C(=O)c3cccc(NCCCCCCCCC(=O)N4CC(Cn5cc(-c6cc(Cl)c(Cl)c7[nH]c8c(c67)CN(C(=O)CO)CC8)cn5)C4)c3C2=O)C(=O)N1` (stereo not drawn), the Activity in assay [1] is 21.2%. Also, the IC50 in assay [2] and in assay [3] was > 50 µM in each case.
Regarding `Cn1ccc(-c2cc(Cl)c(Cl)c3[nH]c4c(c23)CN(C(=O)CNC(=O)CCCC#Cc2cccc3c2C(=O)N(C2CCC(=O)NC2=O)C3=O)CC4)n1` (stereo not drawn), the Activity in assay [1] was 56.1%. The IC50 in assay [2] was 30.8 µM; in assay [3], 12.8 µM.
The like results for `O=C1CCC(N2C(=O)c3cccc(NCCOCCOCCOCCOCCOCCOCCOCCOCCC(=O)N4CCC(Cn5cc(-c6cc(Cl)c(Cl)c7[nH]c8c(c67)CN(C(=O)CO)CC8)cn5)CC4)c3C2=O)C(=O)N1` (stereo not drawn) were, in that order, 4.6%, > 50 µM and > 50 µM.
The like results for `Cn1ccc(-c2cc(Cl)c(Cl)c3[nH]c4c(c23)CN(C(=O)CNC(=O)CCCCCC#Cc2cccc3c2CN(C2CCC(=O)NC2=O)C3=O)CC4)n1` (stereo not drawn) were, in that order, 54.4%, 25.3 µM and 12.7 µM.
The like results for `Cn1ccc(-c2cc(Cl)c(Cl)c3[nH]c4c(c23)CN(C(=O)CNC(=O)CN2CCN(C(=O)COc3cccc5c3C(=O)N(C3CCC(=O)NC3=O)C5=O)CC2)CC4)n1` (stereo not drawn) were, in that order, 18.7%, > 50 µM and > 50 µM.
Turning to `O=C1CCC(N2C(=O)c3cccc(NCCOCCOCCOCCOCCOCCC(=O)N4CCC(Cn5cc(-c6cc(Cl)c(Cl)c7[nH]c8c(c67)CN(C(=O)CO)CC8)cn5)CC4)c3C2=O)C(=O)N1` (stereo not drawn), the Activity in assay [1] came out at 10.4%. For the same compound, the IC50 in assay [2] and in assay [3] was > 50 µM each time.
In the case of `O=C1CCC(N2C(=O)c3cccc(NCCCC(=O)N4CCC(Cn5cc(-c6cc(Cl)c(Cl)c7[nH]c8c(c67)CN(C(=O)CO)CC8)cn5)CC4)c3C2=O)C(=O)N1` (stereo not drawn), the Activity in assay [1] worked out at 4.7%. Further, the IC50 in assay [2] and in assay [3] was > 50 µM each time.
Regarding `Cn1ccc(-c2cc(Cl)c(Cl)c3[nH]c4c(c23)CN(C(=O)CCCC#Cc2cccc3c2CN(C2CCC(=O)NC2=O)C3=O)CC4)n1` (stereo not drawn), in assay [1], the Activity was 40.4%. The IC50 in assay [2] came to 35.6 µM; in assay [3], 25.6 µM.
Turning to `Cn1ccc(-c2cc(Cl)c(Cl)c3[nH]c4c(c23)CN(C(=O)CNC(=O)CCCCNc2cccc3c2C(=O)N(C2CCC(=O)NC2=O)C3=O)CC4)n1` (stereo not drawn), in assay [1], the Activity stood at 61.5%. Moreover, the figures for the 50% inhibitory concentration (IC50) in assay [2] and in assay [3] were 16.1 µM and 8.1 µM, respectively.
The like results for `Cn1ccc(-c2cc(Cl)c(Cl)c3[nH]c4c(c23)CN(C(=O)CNC(=O)CCCCC#Cc2cccc3c2C(=O)N(C2CCC(=O)NC2=O)C3=O)CC4)n1` (stereo not drawn) were, in that order, 48.5%, > 50 µM and 18.9 µM.
For `Cn1ccc(-c2cc(Cl)c(Cl)c3[nH]c4c(c23)CN(C(=O)CCCCC#Cc2cccc3c2CN(C2CCC(=O)NC2=O)C3=O)CC4)n1` (stereo not drawn), in assay [1], the Activity worked out at 45.1%. Besides, the IC50 in assay [2] was > 50 µM; in assay [3] it was 28.4 µM.
The like results for `O=C1CCC(N2C(=O)c3cccc(NCCOCCOCC(=O)N4CCC(Cn5cc(-c6cc(Cl)c(Cl)c7[nH]c8c(c67)CN(C(=O)CO)CC8)cn5)CC4)c3C2=O)C(=O)N1` (stereo not drawn) were, in that order, 44.3%, > 50 µM and 33.6 µM.
The like results for `O=C1CCC(N2C(=O)c3cccc(NCCCCCCCC(=O)N4CCC(Cn5cc(-c6cc(Cl)c(Cl)c7[nH]c8c(c67)CN(C(=O)CO)CC8)cn5)CC4)c3C2=O)C(=O)N1` (stereo not drawn) were, in that order, 35.6%, > 50 µM and > 50 µM.
Take `Cn1ccc(-c2cc(Cl)c(Cl)c3[nH]c4c(c23)CN(C(=O)CNC(=O)CCCCCNc2cccc3c2C(=O)N(C2CCC(=O)NC2=O)C3=O)CC4)n1` (stereo not drawn): the Activity in assay [1] was 59.3%. Moreover, the results for the IC50 in assay [2] and in assay [3] were 26.7 µM and 12.5 µM, respectively.
As for `Cn1ccc(-c2cc(Cl)c(Cl)c3[nH]c4c(c23)CN(C(=O)CNC(=O)CCCCC#Cc2cccc3c2CN(C2CCC(=O)NC2=O)C3=O)CC4)n1` (stereo not drawn), the Activity in assay [1] came to 57.7%. Moreover, the figures for the IC50 in assay [2] and in assay [3] were 15.1 µM and 8.8 µM, respectively.

The values above are taken from ChEMBL document CHEMBL6103619, “Discovery of a Novel CRBN-Recruiting cGAS PROTAC Degrader for the Treatment of Ulcerative Colitis” (J Med Chem, 2025).
